Measurements reported in the supplement of paper PMC10307832.

Tests used:
Assay in all cases: relative viability (nuclei count vs DMSO), 5 days (fraction); higher = more cells survive
Tanzisertib + Bortezomib = compound: O[C@H]1CC[C@H](Nc2ncc3nc(Nc4c(F)cc(F)cc4F)n([C@H]4CCOC4)c3n2)CC1 [Tanzisertib] + CC(C)C[C@H](NC(=O)[C@H](Cc1ccccc1)NC(=O)c1cnccn1)B(O)O [Bortezomib] (partner 0.002 µM)
Procedure, shortened: (§1)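 Relative viability divides the nuclei count in treated wells by that in vehicle wells. Lung cancer cell lines were seeded in 1536-well plates, dosed by pin tool the next day, and fixed and stained after 5 days in one step with final 0.05% Triton X-100, 1% formaldehyde and 1 ug/ml Hoechst. Dosing was a single drug or a fixed anchor-drug dose plus five library-drug doses (not always all listed) in √10 steps, and values are medians of duplicate plates imaged at 4×.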

[1] = compound: C[C@@H](N)c1ccc(C(=O)Nc2ccnc3[nH]ccc23)cc1 + Nc1ncn([C@H]2C[C@H](O)[C@@H](CO)O2)c(=O)n1 [Decitabine] (partner 2 µM)
Procedure, shortened: as §1

[2] = compound: C[C@@H](N)c1ccc(C(=O)Nc2ccnc3[nH]ccc23)cc1 + O=C(CCCCCCC(=O)Nc1ccccc1)NO [Vorinostat] (partner 1 µM)
Procedure, shortened: as §1

[3] = compound: C1CNCCC1C2=CC(=NN2)C3=CC=NC=C3 + CCNC(=O)c1noc(-c2cc(C(C)C)c(O)cc2O)c1-c1ccc(CN2CCOCC2)cc1 [Luminespib] (partner 0.01 µM)
Procedure, shortened: as §1

Cell Line | relative viability (Tanzisertib + Bortezomib; first compound 0.08 µM) | relative viability (Tanzisertib + Bortezomib; first compound 0.253 µM) | relative viability (Tanzisertib + Bortezomib; first compound 0.8 µM) | relative viability (Tanzisertib + Bortezomib; first compound 2.53 µM) | relative viability (Tanzisertib + Bortezomib; first compound 8 µM) | relative viability ([1]; first compound 0.04 µM) | relative viability ([1]; first compound 0.1265 µM) | relative viability ([1]; first compound 0.4 µM) | relative viability ([1]; first compound 1.265 µM) | relative viability ([1]; first compound 4 µM) | relative viability ([2]; first compound 0.04 µM) | relative viability ([2]; first compound 0.1265 µM) | relative viability ([2]; first compound 0.4 µM) | relative viability ([2]; first compound 1.265 µM) | relative viability ([2]; first compound 4 µM) | relative viability ([3]; first compound 0.08 µM) | relative viability ([3]; first compound 0.8 µM) | relative viability ([3]; first compound 2.53 µM) | relative viability ([3]; first compound 8 µM)
NCI-H2009 | 1.34 | 1 | 1.01 | 1.13 | 0.968 | 0.318 | 0.391 | 0.355 | 0.346 | 0.351 | 0.617 | 0.703 | 0.683 | 0.703 | 0.632 | 0.995 | 1.09 | 1.02 | 1.01
NCI-H2023 | 1.18 | 1 | 1.06 | 0.855 | 0.371 | 0.252 | 0.243 | 0.245 | 0.222 | 0.159 | 0.645 | 0.621 | 0.863 | – | 0.819 | 0.709 | 0.878 | 0.867 | 0.832
NCI-H2085 | 1.11 | 1.08 | 0.992 | 1.07 | 1.09 | 0.528 | 0.573 | 0.742 | 0.561 | 0.521 | 0.77 | 0.705 | 0.806 | 0.667 | 0.706 | 0.412 | 0.38 | 0.498 | 0.435
NCI-H2087 | 0.985 | 0.931 | 0.835 | 0.9 | 0.857 | 0.293 | 0.325 | 0.357 | 0.362 | 0.31 | 0.659 | 0.58 | 0.466 | 0.593 | 0.549 | 0.145 | 0.178 | 0.281 | 0.254
NCI-H2126 | 1.11 | 1.18 | 1.09 | 1.11 | 1.2 | 0.56 | 0.583 | 0.596 | 0.599 | 0.572 | 1.02 | 0.685 | 0.738 | 0.432 | 0.916 | 0.813 | 0.975 | 0.959 | 0.917
NCI-H2347 | 0.737 | 0.837 | 1.27 | 1.29 | 0.628 | 0.657 | 0.594 | 0.623 | 0.566 | 0.54 | 0.762 | 0.508 | 0.554 | 0.559 | 0.676 | 0.366 | 0.5 | 0.511 | 0.564
NCI-H2405 | 1.03 | 1.02 | 1.07 | 0.975 | 0.794 | – | 0.801 | 0.695 | 0.448 | 0.248 | – | 1.09 | 1.02 | 0.699 | 0.404 | 0.616 | 0.584 | 0.875 | 0.544
NCI-H3122 | 1.06 | 1.02 | 1.04 | 1.03 | 1.01 | 0.46 | 0.454 | 0.419 | 0.458 | 0.458 | 1.04 | 1.04 | 1.02 | 1.03 | 1.29 | 0.109 | 0.114 | 0.1 | 0.104
PC-3 [JPC-3] | 0.875 | 0.931 | 0.847 | 0.739 | 0.716 | 0.776 | 0.807 | 0.857 | 0.824 | 0.625 | 0.803 | 0.77 | 0.85 | 0.836 | 0.725 | 0.643 | 0.673 | 0.7 | 0.556
PC-14 | 1.05 | 0.878 | 0.879 | 1.01 | 0.585 | 0.24 | 0.217 | 0.277 | 0.258 | 0.188 | 0.714 | 0.878 | 0.851 | – | 0.683 | 0.151 | 0.162 | 0.18 | 0.151
RERF-LC-KJ | 1.17 | 1.01 | 1.04 | 1.07 | 1.02 | 0.762 | 0.764 | 0.75 | 0.806 | 0.634 | 0.737 | 0.736 | 0.838 | 0.652 | 0.74 | 1.14 | 1.3 | 1.45 | 1.42
SK-LU-1 | 1.07 | 1.19 | 1.3 | 1.18 | 0.493 | 0.587 | 0.654 | 0.585 | 0.516 | 0.472 | 0.776 | 0.767 | 0.696 | 0.671 | 0.522 | 0.204 | 0.209 | 0.206 | 0.212
SW 1573 | 1.09 | 1.09 | 0.946 | 1.15 | 0.712 | 0.569 | 0.577 | 0.567 | 0.497 | 0.301 | 0.652 | 0.669 | 0.638 | 0.428 | 0.592 | – | 0.215 | 0.244 | 0.189
